Laboratory results reported in article PMC12339328, “Therapeutic effect and mechanism of gigantol on hyperuricemia” (Frontiers in Endocrinology, 2025).
Values joined by “and” are separate entries in the source; they are usually repeats but may differ in a detail not shown here. Equal entries are not always repeated.

Experiments:
OAT3 [1] = assay: OAT3 protein expression in kidney of HUA mice (Western blot); conditions: allopurinol 10 mg/kg, p > 0.05
ASC = ASC protein expression in HK-2 cells (Western blot); conditions: HK-2; 阳性 = allopurinol 100 µmol/L; replicates 1-3
GLUT9 [2] = assay: GLUT9 protein expression in kidney of HUA mice (Western blot); assay type: in vivo; conditions: allopurinol 10 mg/kg, p > 0.05
XOD [3] = conditions: HUA cell model; allopurinol 100 μmol/L; vs model; p < 0.001
Caspase-1 = Caspase-1 protein expression in HK-2 cells (Western blot); conditions: HK-2; 阳性 = allopurinol 100 µmol/L; replicates 1-3
GLUT9 [4] = assay: GLUT9 protein expression in HK-2 cells (Western blot); conditions: HK-2; 阳性 = allopurinol 100 µmol/L; replicates 1-3
OAT1 [5] = assay: OAT1 protein expression in kidney of HUA mice (Western blot); conditions: allopurinol 10 mg/kg, p > 0.05
NLRP3 = NLRP3 protein expression in HK-2 cells (Western blot); conditions: HK-2; 阳性 = allopurinol 100 µmol/L; replicates 1-3
OAT3 [6] = assay: OAT3 protein expression in HK-2 cells (Western blot); conditions: HK-2; 阳性 = allopurinol 100 µmol/L; replicates 1-3
[7] = Pharmacokinetics in rats (LC-MS/MS, WinNonlin); conditions: for MRT inf: MRT(0-∞); for Cmax: C max; for Tmax: T max
Protocol: Whole blood was taken into heparinized tubes at predefined time points (2, 5, 10, 20, and 30 min, and 1, 2, 4, 6, 8, and 12 h) after administration, and plasma was separated by centrifugation and stored at −20°C until testing. […] Whole blood was taken into heparinized tubes at predefined time points (2, 5, 10, 20, and 30 min, and 1, 2, 4, 6, 8, and 12 h) after administration, and plasma was separated by centrifugation and stored at −20°C until testing. […] Pharmacokinetic parameters were calculated by using the pharmacokinetics software WinNonlin 8.1.

XOD [8] = tested on: XOD
OAT1 [9] = assay: OAT1 protein expression in HK-2 cells (Western blot); conditions: HK-2; 阳性 = allopurinol 100 µmol/L; replicates 1-3
[10] = Sprague-Dawley, rat, plasma, iv, 5 mg/kg, rats, allopurinol intravenous 5 mg/kg, Average
[11] = Sprague-Dawley, rat, plasma, iv, 5 mg/kg, rats, allopurinol intravenous 5 mg/kg, individual rats
[12] = Sprague-Dawley, rat, plasma, po, 50 mg/kg, rats, allopurinol gavage 50 mg/kg, Average
[13] = Sprague-Dawley, rat, plasma, po, 50 mg/kg, rats, allopurinol gavage 50 mg/kg, individual rats
[14] = rats, allopurinol gavage 50 mg/kg, individual rats, 50 mg/kg
[15] = rats, allopurinol intravenous 5 mg/kg, individual rats, 5 mg/kg

For `Oc1ncnc2[nH]ncc12` [allopurinol], the “OAT3 protein expression in kidney” value (OAT3 [1]) was “did not show significant effects”, the “asc protein expression, band value” (ASC) was 163.648 and 185.065 and 186.261 and the “GLUT9 protein expression in kidney” value (GLUT9 [2]) was “did not show significant effects”. For the same compound, the “XOD activity in AML12 cells” value (XOD [3]) was “significantly downregulate”, the “CASPASE protein expression, band value” (Caspase-1) was 147.442 and 190.729 and 189.372 and the “GLUT (GLUT9) protein expression, band value” (GLUT9 [4]) was 146.392 and 138.006 and 144.372. The “OAT1 protein expression in kidney” value (OAT1 [5]) was “did not show significant effects”, the “NLRP3 protein expression, band value” (NLRP3) was 163.939 and 177.621 and 186.105 and the “OAT3 protein expression, band value” (OAT3 [6]) was 160.43 and 183.946. The AUC(0-t) ([7]; Sprague-Dawley, rat, plasma, iv, 5 mg/kg, AUC(0-t), rats, allopurinol intravenous 5 mg/kg, Average) was 179 ng·h/mL, the AUC(0-inf) [7, 10] was 209 ng·h/mL and the AUC(0-inf) [7, 11] was 170 ng·h/mL. It also gave a C0 ([7]; Sprague-Dawley, rat, plasma, iv, 5 mg/kg, C 0, rats, allopurinol intravenous 5 mg/kg, Average) of about 225 ng/mL, a C0 ([7]; Sprague-Dawley, rat, plasma, iv, 5 mg/kg, C 0, rats, allopurinol intravenous 5 mg/kg, individual rats) of 169 ng/mL and an MRT inf [7, 10] of 0.79 h. For the same compound, the MRT inf [7, 11] was 0.73 h, the bioavailability ([7]; Sprague-Dawley, rat, plasma, oral, F (absolute bioavailability), rats, allopurinol gavage 50 mg/kg vs intravenous 5 mg/kg) was about 314% and the AUC(0-t) ([7]; Sprague-Dawley, rat, plasma, po, 50 mg/kg, AUC(0-t), rats, allopurinol gavage 50 mg/kg, Average) was 6470 ng·h/mL. For the same compound, the AUC(0-t) ([7]; Sprague-Dawley, rat, plasma, po, 50 mg/kg, AUC(0-t), rats, allopurinol gavage 50 mg/kg, individual rats) was 6290 ng·h/mL, the AUC(0-inf) [7, 12] was about 6580 ng·h/mL and the AUC(0-inf) [7, 13] was 6430 ng·h/mL. The Cmax [7, 12] was about 1350 ng/mL, the Cmax [7, 13] was 1310 ng/mL and the MRT inf [7, 12] was 2.5 h. It also gave an MRT inf [7, 13] of 2.06 h, a Tmax [7, 12] of 1 to 2 h and a Tmax [7, 13] of 2 h. For the same compound, the V/F ([7]; rats, allopurinol gavage 50 mg/kg, Average) was 14.28 L/kg, the T max ([7]; rats, allopurinol gavage 50 mg/kg, Average, 50 mg/kg) was 1.33 h and the “AUC(0-t)” value [7, 14] was 6,239.00 h·µg/L and 6,870.26 h·µg/L. For the same compound, the “AUC(0-∞)” value [7, 14] was 6,374.71 h·µg/L and 6,922.57 h·µg/L, the C max [7, 14] was 1,440.00 µg/L and 1,310.00 µg/L and the “MRT(0-∞)” value [7, 14] was 2.68 h and 2.75 h. The V/F [7, 14] was 15.75 L/kg and 15.77 L/kg and 11.31 L/kg, the V ([7]; rats, allopurinol intravenous 5 mg/kg, Average) was 19.62 L/kg and the “AUC(0-t)” value [7, 15] was 186.21 ng·h/mL and 225.15 ng·h/mL. The “AUC(0-∞)” value [7, 15] was 207.21 µg·h/L and 250.23 µg·h/L, the “C0” value [7, 15] was 223.22 ng/mL and 281.70 ng/mL and the “MRT(0-∞)” value [7, 15] was 0.81 h and 0.83 h. For the same compound, the V [7, 15] was 20.68 L/kg and 20.60 L/kg and 17.58 L/kg, the “xod protein expression, band value” (XOD [8]; AML12, 阳性 = allopurinol 100 µmol/L, replicates 1-3) was 155.965 and 209.523 and 140.271 and the “XOD protein expression in AML12 cells” value (XOD [8]; HUA cell model, allopurinol 100 µmol/L, vs model group) was “significantly downregulate”. For the same compound, the “OAT1 protein expression, band value” (OAT1 [9]) was 174.983 and 217.222 and 169.712.
